This is an account of results in publication PMC9287224 (Clinical Pharmacokinetics, 2022).

As a reminder, the clearance is a measure of how efficiently the substance is removed, as volume per time. The term bioavailability denotes the share of a dose that reaches the circulation, judged against a reference dose that is usually intravenous.

The conditions of series [1]: for decrease in Cl/F: Child C cirrhosis compared with control subjects; for decrease of the elimination rate by liver cirrhosis: liver cirrhosis (Child class not stated) vs control subjects; for reduction of the elimination rate: patients with Child C cirrhosis vs control subjects.
The conditions of series [2]: monkeys; cited from earlier work.
Series [3] is described as follows: Galactose elimination capacity. The settings on record: patients with Child C cirrhosis. It counts as in vivo, human.
The target in series [4] is CYP2C9 (Homo sapiens, UniProt P11712). Particulars: patients with Child C cirrhosis vs control subjects.

Each structure is given as a SMILES string. Where a name gives a salt, the structure may show the parent alone.

Chain of CYP2C9 (P11712 whole entry): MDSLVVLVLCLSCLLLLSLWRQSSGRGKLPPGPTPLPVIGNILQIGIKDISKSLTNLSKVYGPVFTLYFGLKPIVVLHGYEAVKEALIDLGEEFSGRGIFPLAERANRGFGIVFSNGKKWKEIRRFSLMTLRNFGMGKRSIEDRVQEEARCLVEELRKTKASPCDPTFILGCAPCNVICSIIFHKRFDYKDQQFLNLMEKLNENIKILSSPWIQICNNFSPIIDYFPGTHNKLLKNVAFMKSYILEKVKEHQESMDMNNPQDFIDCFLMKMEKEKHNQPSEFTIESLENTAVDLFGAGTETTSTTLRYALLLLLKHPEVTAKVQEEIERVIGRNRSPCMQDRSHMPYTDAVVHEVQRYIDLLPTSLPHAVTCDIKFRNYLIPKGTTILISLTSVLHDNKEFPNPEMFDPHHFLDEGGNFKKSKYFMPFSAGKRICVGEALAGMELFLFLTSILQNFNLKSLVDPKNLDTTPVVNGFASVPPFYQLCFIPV

Regarding `COc1ccc2[nH]c([S+]([O-])Cc3ncc(C)c(OC)c3C)nc2c1` (stereo not shown) [Omeprazole, omeprazole], in series [1], the “decrease in Cl/F” value is given as 91% and the “decrease of the elimination rate by liver cirrhosis” value stood at 75%.
With `Cc1ncc2n1-c1ccc(Cl)cc1C(c1ccccc1F)=NC2` [Midazolam, midazolam], the “decrease in Cl/F” value in series [1] stood at 84%. The “ratio of the bioavailabilities Fcirrhosis Child C/Fcontrols” value in series [1] (assuming equal volume of distribution in cirrhosis and controls) is listed as 1.73. In series [1] (human, in vivo, clearance corrected for bioavailability, controls), the clearance was about 1330 mL/min.
Regarding `COCCc1ccc(OCC(O)CNC(C)C)cc1` (stereo not shown) [Metoprolol, metoprolol tartrate], the “decrease of the elimination rate by liver cirrhosis” value in series [1] was determined as 37%. Besides, in series [1] (patients with Child C cirrhosis), the “Cl/F as % of control subjects (dropped to)” value was 22%.
For `O=C1Nc2ccc(Cl)cc2[C@@](C#CC2CC2)(C(F)(F)F)O1` [Efavirenz, efavirenz], the bioavailability in series [2] was 42%. In addition, in series [1], the “reduction of the elimination rate” value came out at 30%.
In the case of `Cn1c(=O)c2c(ncn2C)n(C)c1=O` [Caffeine, caffeine], the “reduction of the elimination rate” value in series [1] was 51%.
Take `CC(C(=O)O)c1ccc(-c2ccc(O)cc2)c(F)c1` (stereo not shown) [4-Hydroxyflurbiprofen, 4-hydroxyflurbiprofen]: in series [1] (liver cirrhosis vs control subjects (Child class not stated)), the “increase in the AUC0–24h by liver cirrhosis” value came to 58%.
Turning to `O=C[C@H](O)[C@@H](O)[C@@H](O)[C@H](O)CO` [Galactose, galactose], in series [3], the “galactose elimination capacity as % of controls (dropping to)” value stood at 18%.
Take `CC(C(=O)O)c1ccc(-c2ccccc2)c(F)c1` (stereo not shown) [Flurbiprofen, flurbiprofen]: the “change of metabolic ratio 4-hydroxyflurbiprofen/flurbiprofen” value in series [4] was “remained unchanged”.
